Laboratory results from patent publication US20180098538A1, “CONFIGURATIONAL STEREOISOMER OF DIFETHIALONE, COMPOSITION AND RODENTICIDAL BAIT COMPRISING SAME, AND PROCESS FOR CONTROLLING TARGET RODENT PESTS” (priority 2015, published 2018).

Type: in vivo
Settings: rats which consumed a bait comprising 15 ppm of difethialone of the prior art
Experimental: For comparative purposes, the difethialone content retained in the liver of rats which consumed a bait comprising 15 ppm of difethialone of the prior art is about 110 μg/gram.

O=c1sc2ccccc2c(O)c1C1CC(c2ccc(-c3ccc(Br)cc3)cc2)Cc2ccccc21 (stereo not shown) [difethialone, 3-(4′-bromobiphenyl-4-yl)-1-(4-hydroxythiocoumarin-3-yl)-1,2,3,4-tetrahydronaphthalene]
Difethialone content retained in the liver: about 110 μg/gram
